According to US4265910A (priority 1979, dated 1981):
Structures can show the parent of a compound that is named as a salt. Where two headings read alike, the source gives them in different places.

Assays:
[1] = tested on: serum interferon; test: animal or person; type: in vivo, ICR female mice; conditions: Mus musculus, L929, ip, 20 h, read-out: Plaque inhibition
[2] = tested on: vaccinia virus (DIE strain); type: in vivo, ICR female mice; conditions: 8th day after inoculation
[3] = tested on: Human fibroblast cells; test: cells; type: cell-based; conditions: read-out: Inhibition of cytolysis
[4] = Acute toxicity (50% lethal dose); conditions: mouse, in vivo, ddY male mice 20-25 g
Text: In order to investigate acute toxicity of the ingredients of the present invention, 50% lethal dose of each ingredient was obtained by intravenous and intraperitoneal administration thereof by ddY male mice weighing 20-25 g. From the results shown in Table 5, it is understood that the ingredients had high safety margin.

[5] = ip, intraperitoneal, read-out: 50% Lethal dose, intraperitoneally administered
[6] = intravenous, read-out: 50% Lethal dose, intravenously administered

Structure (SMILES) | inhibition at 20 mg/kg [1] | inhibition at 40 mg/kg [1] | Inhibition of tail lesion ([2]; 20 mg/kg i.p., consecutively dosed (6 times)) | Inhibition of tail lesion ([2]; 20 mg/kg i.p., dosed one time) | Inhibition of tail lesion ([2]; 20 mg/kg p.o., consecutively dosed (6 times)) | Inhibition of tail lesion ([2]; 30 mg/kg i.p., dosed one time) | Inhibition of tail lesion ([2]; 30 mg/kg s.c., dosed one time) | Inhibition of tail lesion ([2]; 40 mg/kg i.p., consecutively dosed (6 times)) | Inhibition of tail lesion ([2]; 40 mg/kg i.p., dosed one time) | Inhibition of tail lesion ([2]; 50 mg/kg p.o., dosed one time) | inhibition at 5 µg/disc [3] | LD50 [4, 5] | LD50 [4, 6] | Inhibition of tail lesion ([2]; 40 mg/kg p.o., dosed one time) | Inhibition of tail lesion ([2]; 100 mg/kg p.o., dosed one time)
CC(C)=CCCC(C)=CCCC(C)=CCCC(C)=CCCC(C)=CCCC(C)=CCCC(C)=CCCC(C)=CCCC(C)=CCCC(C)=CCN [Decaprenylamine hydrochloride] | 47.1% | 83% | 77.4% | 76.1% | 56.8% | 68.7% | 69.7% | 88.2% | 79.6% | 24.1% | 64.9% | 1000 mg/kg | 39.5 mg/kg | – | –
CC(C)=CCCC(C)=CCCC(C)=CCCC(C)=CCCC(C)=CCCC(C)=CCCC(C)=CCCC(C)=CCCC(C)=CCN [Solanesylamine hydrochloride, solanesylamine hydrochloride] | 81% | 79.7% | – | 35.7% | – | 72.1% | 23.2% | – | – | – | 55.4% | > 500 mg/kg | 32.3 mg/kg | 40.5% | –
CC(C)=CCCC(C)=CCCC(C)=CCCC(C)=CCCC(C)=CCCC(C)=CCCC(C)=CCCC(C)=CCCC(C)=CCCC(C)=CCCC(C)=CCN [Undecaprenylamine hydrochloride] | – | 70.3% | – | 52.4% | – | 40.5% | – | – | – | – | 83.3% | > 1000 mg/kg | 18 mg/kg | – | 45.6%
